# Data taken from US20110190285A1 (priority 2008, published 2011).
# Molecular target: botulinum (serotype-A) (Clostridium botulinum, UniProt P0DPI1)
# Assay: cell-based
# Conditions: read-out: Cell Biology (% inhibition at 30 uM)
# Chain of botulinum (serotype-A) (P0DPI1 2-1296 limits assumed): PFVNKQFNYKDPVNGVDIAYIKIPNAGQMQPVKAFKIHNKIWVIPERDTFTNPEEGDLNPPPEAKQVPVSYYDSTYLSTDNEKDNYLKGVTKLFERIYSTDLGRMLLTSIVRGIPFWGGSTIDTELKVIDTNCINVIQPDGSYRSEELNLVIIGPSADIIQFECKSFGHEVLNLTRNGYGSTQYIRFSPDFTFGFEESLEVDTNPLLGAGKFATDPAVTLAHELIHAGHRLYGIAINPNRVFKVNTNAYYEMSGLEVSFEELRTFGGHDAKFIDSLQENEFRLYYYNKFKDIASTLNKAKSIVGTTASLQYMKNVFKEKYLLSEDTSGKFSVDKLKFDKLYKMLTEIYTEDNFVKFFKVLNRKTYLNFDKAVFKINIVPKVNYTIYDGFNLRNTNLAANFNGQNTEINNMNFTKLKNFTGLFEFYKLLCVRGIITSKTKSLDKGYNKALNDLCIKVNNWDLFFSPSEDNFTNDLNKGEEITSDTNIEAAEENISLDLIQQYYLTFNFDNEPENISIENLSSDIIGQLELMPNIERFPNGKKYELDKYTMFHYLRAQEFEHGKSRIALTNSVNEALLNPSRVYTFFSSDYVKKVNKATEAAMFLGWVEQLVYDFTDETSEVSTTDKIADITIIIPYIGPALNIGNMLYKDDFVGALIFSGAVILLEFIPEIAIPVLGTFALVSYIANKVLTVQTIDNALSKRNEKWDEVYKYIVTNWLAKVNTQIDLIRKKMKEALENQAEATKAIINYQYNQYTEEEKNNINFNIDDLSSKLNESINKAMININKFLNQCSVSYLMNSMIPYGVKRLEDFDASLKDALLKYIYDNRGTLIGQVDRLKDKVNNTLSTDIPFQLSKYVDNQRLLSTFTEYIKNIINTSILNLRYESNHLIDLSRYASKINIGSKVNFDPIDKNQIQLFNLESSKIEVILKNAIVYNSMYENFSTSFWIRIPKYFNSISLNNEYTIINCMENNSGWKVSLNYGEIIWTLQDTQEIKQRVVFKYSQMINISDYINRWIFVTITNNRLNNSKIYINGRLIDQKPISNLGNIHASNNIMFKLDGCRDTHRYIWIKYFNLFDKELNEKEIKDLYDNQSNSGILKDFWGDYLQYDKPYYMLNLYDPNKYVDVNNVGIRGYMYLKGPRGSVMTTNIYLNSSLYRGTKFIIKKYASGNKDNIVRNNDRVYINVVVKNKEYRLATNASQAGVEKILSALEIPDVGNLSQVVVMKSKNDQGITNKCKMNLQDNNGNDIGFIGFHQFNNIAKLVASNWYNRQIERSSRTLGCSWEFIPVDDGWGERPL
row,Compound,inhibition at 30 µM [%]
1,O=C(CS)Nc1cc(-c2ccc(F)cc2)n[nH]1,73 to 78
2,O=C(CS)Nc1cc(-c2ccc(Cl)cc2)n[nH]1,57 to 100
3,Cc1ccc(NC(=O)CS)cc1C#N,77
4,CCOC(=O)Cc1csc(NC(=O)CS)n1,86
5,O=C(CS)Nc1ccc2c(c1)Cc1cc(Br)ccc1-2,90

# Same assay, conditions: read-out: Cell Biology IC50
row,Compound,IC50 [µM]
1,O=C(CS)Nc1cc(-c2ccc(Cl)cc2)n[nH]1,10 to 19
2,CC(NC(=O)CS)c1ccc(Cl)cc1Cl (stereo not drawn) [drawing 69],18

# Molecular target: botulinum toxin recombinant light chain (Clostridium botulinum, UniProt P0DPI0)
# Sequence (P0DPI0 2-448 limits assumed): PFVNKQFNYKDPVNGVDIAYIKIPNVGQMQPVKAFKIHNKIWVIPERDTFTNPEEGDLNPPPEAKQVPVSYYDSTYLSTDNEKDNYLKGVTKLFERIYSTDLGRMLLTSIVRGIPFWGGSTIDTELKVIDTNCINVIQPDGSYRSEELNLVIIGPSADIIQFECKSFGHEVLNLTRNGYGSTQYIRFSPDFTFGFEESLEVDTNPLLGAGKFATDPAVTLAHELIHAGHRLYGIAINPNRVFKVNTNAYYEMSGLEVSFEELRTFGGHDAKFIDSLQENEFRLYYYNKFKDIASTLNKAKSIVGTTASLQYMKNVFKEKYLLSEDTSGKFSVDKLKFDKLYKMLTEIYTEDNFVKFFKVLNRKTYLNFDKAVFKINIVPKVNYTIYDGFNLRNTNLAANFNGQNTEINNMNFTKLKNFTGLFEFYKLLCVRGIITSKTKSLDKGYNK
# Assay: biochemical
# Conditions: not given
row,Compound,IC50 [µM]
1,CC(NC(=O)CS)c1ccc(Cl)cc1Cl (stereo not drawn) [drawing 65],5 to 27
2,C[C@@H](NC(=O)CS)c1ccc2ccccc2c1,8 to 21
